Literature values in US9125916B2, “Methods of treating hypertrophic cardiomyopathy” (Gilead Sciences, Inc., priority 2013, dated 2015).

Tested on: human cardiac tissue derived from patients with symptomatic HCM
Details: Circulation 2013, 127 (5):575-584

COc1ccccc1OCC(O)CN1CCN(CC(=O)Nc2c(C)cccc2C)CC1 (stereo not shown) [ranolazine]
effect of inhibition of late INa on electrical and mechanical abnormalities characteristic of HCM: reverse multiple electrical and mechanical abnormalities characteristic of the disease
